Results as given in the supplement of paper PMC10307832.

Experiments:
Test in all cases: relative viability (nuclei count vs DMSO), 5 days (fraction); higher = more cells survive
[1] = compound: Cc1nc(Nc2ncc(C(=O)Nc3c(C)cccc3Cl)s2)cc(N2CCN(CCO)CC2)n1 [Dasatinib] + NC(=O)Nc1cc(-c2cccc(F)c2)sc1C(=O)N[C@H]1CCCNC1 [AZD7762] (partner 0.2 µM)
How it was run: (§1)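 Relative viability was taken as the ratio of nuclei in treated wells to nuclei in vehicle wells. Lung cancer cell lines in 1536-well plates received compounds by pin tool one day after seeding, either one drug alone or a fixed anchor-drug dose plus five library-drug doses (not always all listed) in √10 steps. Nuclei were counted on 4× images after 5 days of treatment, and values are medians of duplicate plates.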

[2] = compound: C1CC1C(=O)NC2=NNC3=C2C=CC(=C3)C4=CC(=CC=C4)C(=O)NC5CC5 [XMD13-2] + CCNC(=O)c1noc(-c2cc(C(C)C)c(O)cc2O)c1-c1ccc(CN2CCOCC2)cc1 [Luminespib] (partner 0.01 µM)
How it was run: as §1

[3] = compound: Cc1ccc(C(=O)Nc2cccc(C(F)(F)F)c2)cc1Nc1cncc(C(N)=O)c1 [ALW-II-49-7] + O=C(c1cc(Cc2n[nH]c(=O)c3ccccc23)ccc1F)N1CCN(C(=O)C2CC2)CC1 [Olaparib] (partner 8 µM)
How it was run: as §1

[4] = compound: C1CC1C(=O)NC2=NNC3=C2C=CC(=C3)C4=CC(=CC=C4)C(=O)NC5CC5 [XMD13-2] + CS(=O)(=O)N1CCN(Cc2cc3nc(-c4cccc5[nH]ncc45)nc(N4CCOCC4)c3s2)CC1 [Pictilisib] (partner 1 µM)
How it was run: as §1

Row | Cell Line | relative viability ([1]; first compound 0.005 µM) | relative viability ([1]; first compound 0.01581 µM) | relative viability ([1]; first compound 0.05 µM) | relative viability ([1]; first compound 0.1581 µM) | relative viability ([1]; first compound 0.5 µM) | relative viability ([2]; first compound 0.05 µM) | relative viability ([2]; first compound 0.1581 µM) | relative viability ([2]; first compound 0.5 µM) | relative viability ([2]; first compound 1.581 µM) | relative viability ([2]; first compound 5 µM) | relative viability ([3]; first compound 0.08 µM) | relative viability ([3]; first compound 0.253 µM) | relative viability ([3]; first compound 0.8 µM) | relative viability ([3]; first compound 2.53 µM) | relative viability ([3]; first compound 8 µM) | relative viability ([4]; first compound 0.05 µM) | relative viability ([4]; first compound 0.1581 µM) | relative viability ([4]; first compound 0.5 µM) | relative viability ([4]; first compound 1.581 µM) | relative viability ([4]; first compound 5 µM)
1 | NCI-H2170 | 0.864 | 0.779 | 0.633 | 0.409 | 0.278 | 0.506 | 0.515 | 0.776 | 0.55 | 0.908 | 0.76 | 0.595 | 0.562 | 0.535 | 0.603 | 0.349 | 0.33 | 0.338 | 0.275 | 0.247
2 | NCI-H2126 | 0.971 | 0.847 | 0.98 | 0.885 | 0.511 | 0.899 | 0.977 | 0.957 | 0.832 | 0.92 | 0.823 | 0.882 | 0.979 | 0.891 | 0.87 | 0.508 | 0.448 | 0.503 | 0.518 | 0.502
3 | HCC-827 | 0.215 | 0.176 | 0.127 | 0.114 | 0.146 | 0.809 | 0.424 | 0.725 | 0.576 | 0.661 | 0.624 | 0.625 | 0.59 | 0.542 | 0.59 | 1.01 | 0.901 | 1.18 | 0.913 | 0.67
4 | ABC-1 | 0.74 | 0.689 | 0.758 | 0.747 | 0.383 | 0.477 | 0.919 | 0.611 | 0.545 | 0.325 | 0.636 | 0.828 | 0.744 | 0.838 | 0.921 | 0.946 | 0.744 | 0.706 | 0.791 | 0.3
5 | NCI-H650 | 0.75 | 0.896 | 1.01 | 0.606 | 0.4 | 0.854 | 0.757 | 0.854 | 0.822 | 0.668 | 0.42 | 0.388 | 0.416 | 0.351 | 0.304 | 0.921 | 0.827 | 0.924 | 0.859 | 0.801
6 | BEN | 0.747 | 0.558 | 0.483 | 0.402 | 0.43 | 0.53 | 0.437 | 0.384 | 0.246 | 0.289 | 1.12 | 1.11 | 1.18 | 0.548 | 0.98 | 0.663 | 0.535 | 0.585 | 0.562 | 0.523
7 | ChaGo-K-1 | 0.854 | 0.77 | 0.822 | 0.705 | 0.549 | 0.585 | 0.582 | 0.603 | 0.617 | 0.476 | 0.384 | 0.427 | 0.394 | 0.411 | 0.39 | 0.82 | 0.631 | 0.461 |  | 0.599
8 | NCI-H23 | 0.321 | 0.24 | 0.231 | 0.224 | 0.187 | 0.222 | 0.2 | 0.21 | 0.204 | 0.21 | 0.328 | 0.363 | 0.383 | 0.294 | 0.298 | 0.579 | 0.438 | 0.503 | 0.446 | 0.457
9 | NCI-H1975 | 0.714 | 0.538 | 0.578 | 0.442 | 0.317 | 0.169 | 0.253 | 0.172 | 0.197 | 0.191 | 0.739 | 0.845 | 0.793 | 0.682 | 0.683 | 0.319 | 0.3 | 0.333 | 0.322 | 0.325
10 | LK-2 | 0.31 |  | 0.191 | 0.0866 | 0.129 | 0.181 | 0.17 | 0.179 | 0.205 | 0.172 | 0.803 | 0.682 | 0.576 |  | 0.817 | 0.744 | 0.464 | 0.581 | 0.619 | 0.582
11 | EKVX | 0.684 | 0.663 | 0.515 | 0.221 | 0.172 | 0.978 | 0.887 | 0.982 | 0.906 | 0.738 | 0.77 | 0.847 | 0.823 | 0.374 | 0.855 | 0.476 | 0.401 | 0.434 | 0.42 | 0.388
12 | NCI-H838 | 0.868 | 0.786 | 0.811 | 0.685 | 0.669 | 0.398 | 0.308 | 0.407 | 0.235 | 0.347 | 0.715 | 0.744 | 0.881 | 0.844 | 0.7 | 0.423 | 0.512 | 0.497 | 0.447 | 0.466
13 | NCI-H2085 | 0.992 | 0.688 | 0.436 | 0.39 | 0.2 | 0.447 | 0.494 | 0.491 | 0.497 | 0.423 | 0.701 | 0.776 | 0.756 | 0.844 | 0.763 | 0.828 | 0.445 | 0.444 | 0.444 | 0.481
